From paper PMC4208292 (Bioorganic & medicinal chemistry letters, 2012)
Entries after “also recorded” stand apart in the source; their conditions may differ.

Tests used:
smMLCK = smMLCK (Homo sapiens, UniProt Q15746); assay: Radioactivity-based enzymatic kinase panel; type: biochemical
ALK = ALK (Homo sapiens, UniProt Q9UM73); assay: Kinase-binding assay; settings: 10 μM; KINOMEscan profile
FLT3(D835Y) = molecular target: T1, FLT3(D835Y) (Homo sapiens, UniProt P36888, D835Y); assay: Kinase-binding assay; settings: 10 μM; KINOMEscan profile
T1 sequence (P36888 27-993 D835Y): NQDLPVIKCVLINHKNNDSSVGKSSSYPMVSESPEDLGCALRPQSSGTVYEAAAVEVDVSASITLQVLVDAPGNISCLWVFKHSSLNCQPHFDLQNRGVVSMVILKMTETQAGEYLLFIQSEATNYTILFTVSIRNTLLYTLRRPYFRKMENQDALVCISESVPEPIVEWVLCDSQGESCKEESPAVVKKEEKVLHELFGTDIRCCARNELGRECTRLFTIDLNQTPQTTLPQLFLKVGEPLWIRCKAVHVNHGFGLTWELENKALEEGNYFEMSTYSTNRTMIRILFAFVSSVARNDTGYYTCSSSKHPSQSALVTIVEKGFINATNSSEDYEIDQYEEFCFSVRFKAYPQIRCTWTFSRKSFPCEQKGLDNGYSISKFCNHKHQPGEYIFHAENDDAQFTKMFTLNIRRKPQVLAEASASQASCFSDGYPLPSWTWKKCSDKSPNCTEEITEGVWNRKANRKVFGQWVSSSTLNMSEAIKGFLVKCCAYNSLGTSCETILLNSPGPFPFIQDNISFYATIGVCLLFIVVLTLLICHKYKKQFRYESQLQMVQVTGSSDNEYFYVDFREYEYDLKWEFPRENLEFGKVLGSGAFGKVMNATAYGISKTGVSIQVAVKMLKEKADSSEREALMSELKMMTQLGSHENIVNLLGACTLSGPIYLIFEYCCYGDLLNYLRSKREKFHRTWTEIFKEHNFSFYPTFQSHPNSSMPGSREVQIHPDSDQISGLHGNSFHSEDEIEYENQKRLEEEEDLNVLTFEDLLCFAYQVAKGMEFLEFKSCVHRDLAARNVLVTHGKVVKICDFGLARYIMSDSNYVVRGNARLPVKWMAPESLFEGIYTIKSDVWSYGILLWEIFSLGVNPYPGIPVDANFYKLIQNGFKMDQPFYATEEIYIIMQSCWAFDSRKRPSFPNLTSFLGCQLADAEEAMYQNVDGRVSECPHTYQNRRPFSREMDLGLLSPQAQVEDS

[1] = Pharmacokinetic profile in mice; type: in vivo; settings: male, Swiss Albino, mouse, brain, iv, 1 mg/kg
LRRK2 = LRRK2 (Mus musculus, UniProt Q5S006); assay: Pharmacodynamic study of LRRK2 Ser910/Ser935 phosphorylation in mouse tissues; type: in vivo; settings: intraperitoneal 100 mg/kg, normal mice
LRRK2, sequence (Q5S006 whole entry): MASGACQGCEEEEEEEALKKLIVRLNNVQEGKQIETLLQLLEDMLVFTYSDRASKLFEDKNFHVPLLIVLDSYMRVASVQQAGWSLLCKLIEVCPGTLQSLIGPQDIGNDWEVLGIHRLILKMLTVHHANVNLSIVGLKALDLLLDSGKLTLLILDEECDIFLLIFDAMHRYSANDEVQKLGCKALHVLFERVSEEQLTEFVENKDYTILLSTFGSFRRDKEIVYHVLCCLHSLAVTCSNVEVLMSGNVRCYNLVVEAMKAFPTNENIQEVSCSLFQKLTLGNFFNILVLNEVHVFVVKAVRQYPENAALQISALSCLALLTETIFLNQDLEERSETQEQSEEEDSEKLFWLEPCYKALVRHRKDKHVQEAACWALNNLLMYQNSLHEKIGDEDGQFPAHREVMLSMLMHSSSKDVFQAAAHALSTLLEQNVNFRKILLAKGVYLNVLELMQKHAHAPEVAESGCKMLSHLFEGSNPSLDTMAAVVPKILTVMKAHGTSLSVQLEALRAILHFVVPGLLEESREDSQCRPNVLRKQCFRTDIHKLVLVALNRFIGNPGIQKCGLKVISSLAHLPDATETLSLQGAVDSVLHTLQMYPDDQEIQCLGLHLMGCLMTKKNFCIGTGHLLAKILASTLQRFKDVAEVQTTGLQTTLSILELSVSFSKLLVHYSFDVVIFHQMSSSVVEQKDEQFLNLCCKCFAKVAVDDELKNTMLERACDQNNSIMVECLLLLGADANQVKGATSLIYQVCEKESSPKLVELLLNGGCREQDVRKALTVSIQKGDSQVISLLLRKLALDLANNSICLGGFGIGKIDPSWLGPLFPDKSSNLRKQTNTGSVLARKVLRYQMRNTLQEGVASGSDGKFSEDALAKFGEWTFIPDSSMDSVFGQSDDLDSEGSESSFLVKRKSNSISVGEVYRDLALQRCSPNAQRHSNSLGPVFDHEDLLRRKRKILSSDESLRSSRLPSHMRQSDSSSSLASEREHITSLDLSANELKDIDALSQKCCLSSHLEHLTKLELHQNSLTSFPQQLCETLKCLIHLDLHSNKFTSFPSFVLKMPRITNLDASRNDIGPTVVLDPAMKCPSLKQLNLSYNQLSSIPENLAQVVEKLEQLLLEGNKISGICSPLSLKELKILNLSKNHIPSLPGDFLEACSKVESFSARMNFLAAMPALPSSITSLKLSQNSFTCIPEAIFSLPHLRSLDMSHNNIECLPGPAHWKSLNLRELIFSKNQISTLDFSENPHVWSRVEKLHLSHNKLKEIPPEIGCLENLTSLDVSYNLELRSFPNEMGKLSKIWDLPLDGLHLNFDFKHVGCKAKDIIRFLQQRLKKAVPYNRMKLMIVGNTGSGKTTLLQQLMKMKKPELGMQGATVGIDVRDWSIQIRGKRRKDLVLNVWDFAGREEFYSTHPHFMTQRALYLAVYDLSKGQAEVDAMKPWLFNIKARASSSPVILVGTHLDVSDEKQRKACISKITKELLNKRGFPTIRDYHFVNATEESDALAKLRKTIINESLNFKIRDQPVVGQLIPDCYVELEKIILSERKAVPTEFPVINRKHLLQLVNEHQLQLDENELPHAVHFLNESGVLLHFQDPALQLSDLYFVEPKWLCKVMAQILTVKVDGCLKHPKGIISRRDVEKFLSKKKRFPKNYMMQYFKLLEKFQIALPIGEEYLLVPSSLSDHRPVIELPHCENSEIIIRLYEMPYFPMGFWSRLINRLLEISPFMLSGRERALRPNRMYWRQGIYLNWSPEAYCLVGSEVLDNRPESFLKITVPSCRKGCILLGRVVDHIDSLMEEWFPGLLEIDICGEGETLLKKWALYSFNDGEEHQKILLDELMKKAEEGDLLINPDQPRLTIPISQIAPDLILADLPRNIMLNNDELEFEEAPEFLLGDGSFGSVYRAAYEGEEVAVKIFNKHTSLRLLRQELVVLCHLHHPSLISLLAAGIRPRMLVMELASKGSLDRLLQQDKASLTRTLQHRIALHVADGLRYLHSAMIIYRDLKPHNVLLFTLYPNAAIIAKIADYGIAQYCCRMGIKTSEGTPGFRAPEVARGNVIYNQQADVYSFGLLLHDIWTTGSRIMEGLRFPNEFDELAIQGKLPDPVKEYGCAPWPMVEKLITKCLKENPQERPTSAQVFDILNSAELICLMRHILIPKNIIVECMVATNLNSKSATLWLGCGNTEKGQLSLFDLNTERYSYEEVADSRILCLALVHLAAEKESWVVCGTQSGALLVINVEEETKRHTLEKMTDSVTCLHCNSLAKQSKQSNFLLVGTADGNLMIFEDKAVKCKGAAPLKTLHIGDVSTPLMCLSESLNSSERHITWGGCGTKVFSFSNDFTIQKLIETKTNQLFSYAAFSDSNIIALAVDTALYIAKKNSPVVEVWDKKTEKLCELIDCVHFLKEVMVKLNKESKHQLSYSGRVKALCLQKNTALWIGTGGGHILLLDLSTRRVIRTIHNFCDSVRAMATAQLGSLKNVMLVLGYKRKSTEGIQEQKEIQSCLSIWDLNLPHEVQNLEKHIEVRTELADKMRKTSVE

[2] = molecular target: T2, wild-type LRRK2 (GST-LRRK2(1326–2517)) (Homo sapiens, UniProt Q5S007); assay: LRRK2 enzyme activity assay
T2 sequence (Q5S007 1326-2517): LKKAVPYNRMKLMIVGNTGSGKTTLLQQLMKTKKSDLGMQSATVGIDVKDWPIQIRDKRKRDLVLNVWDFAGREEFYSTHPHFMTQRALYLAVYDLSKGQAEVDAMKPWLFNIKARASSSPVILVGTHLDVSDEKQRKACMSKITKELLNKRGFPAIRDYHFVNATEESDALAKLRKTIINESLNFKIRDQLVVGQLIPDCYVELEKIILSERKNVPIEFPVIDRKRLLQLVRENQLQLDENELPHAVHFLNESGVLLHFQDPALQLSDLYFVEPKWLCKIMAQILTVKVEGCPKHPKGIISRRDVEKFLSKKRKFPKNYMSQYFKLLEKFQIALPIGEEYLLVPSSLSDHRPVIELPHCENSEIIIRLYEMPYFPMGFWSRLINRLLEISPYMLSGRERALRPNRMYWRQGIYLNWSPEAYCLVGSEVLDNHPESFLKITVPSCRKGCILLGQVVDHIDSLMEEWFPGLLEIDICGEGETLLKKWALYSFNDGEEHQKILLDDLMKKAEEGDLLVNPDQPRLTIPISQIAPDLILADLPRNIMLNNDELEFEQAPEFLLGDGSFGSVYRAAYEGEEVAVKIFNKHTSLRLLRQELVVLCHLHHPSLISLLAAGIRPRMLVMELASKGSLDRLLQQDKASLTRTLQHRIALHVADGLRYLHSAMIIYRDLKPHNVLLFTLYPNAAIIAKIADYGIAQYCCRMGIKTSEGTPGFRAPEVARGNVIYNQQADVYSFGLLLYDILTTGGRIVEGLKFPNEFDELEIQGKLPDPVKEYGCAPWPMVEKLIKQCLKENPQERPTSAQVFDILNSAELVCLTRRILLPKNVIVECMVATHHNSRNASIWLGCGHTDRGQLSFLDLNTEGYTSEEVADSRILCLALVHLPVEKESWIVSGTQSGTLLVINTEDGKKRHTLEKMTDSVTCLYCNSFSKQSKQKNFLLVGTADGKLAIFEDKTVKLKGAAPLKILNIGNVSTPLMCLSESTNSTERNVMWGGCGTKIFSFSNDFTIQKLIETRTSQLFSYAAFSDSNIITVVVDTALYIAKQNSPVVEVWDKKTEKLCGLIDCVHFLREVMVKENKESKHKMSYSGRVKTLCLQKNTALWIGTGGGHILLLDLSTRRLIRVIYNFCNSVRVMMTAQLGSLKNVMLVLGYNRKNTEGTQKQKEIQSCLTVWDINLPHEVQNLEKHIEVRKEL

GFP-LRRK2[A2016T] = GFP-LRRK2[A2016T] (Homo sapiens, UniProt Q5S007, A2016T); assay: Ser910/Ser935 phosphorylation immunoblot in stably transfected HEK293 cells; settings: 90 min

ALK, sequence (Q9UM73 19-1620, species assumed): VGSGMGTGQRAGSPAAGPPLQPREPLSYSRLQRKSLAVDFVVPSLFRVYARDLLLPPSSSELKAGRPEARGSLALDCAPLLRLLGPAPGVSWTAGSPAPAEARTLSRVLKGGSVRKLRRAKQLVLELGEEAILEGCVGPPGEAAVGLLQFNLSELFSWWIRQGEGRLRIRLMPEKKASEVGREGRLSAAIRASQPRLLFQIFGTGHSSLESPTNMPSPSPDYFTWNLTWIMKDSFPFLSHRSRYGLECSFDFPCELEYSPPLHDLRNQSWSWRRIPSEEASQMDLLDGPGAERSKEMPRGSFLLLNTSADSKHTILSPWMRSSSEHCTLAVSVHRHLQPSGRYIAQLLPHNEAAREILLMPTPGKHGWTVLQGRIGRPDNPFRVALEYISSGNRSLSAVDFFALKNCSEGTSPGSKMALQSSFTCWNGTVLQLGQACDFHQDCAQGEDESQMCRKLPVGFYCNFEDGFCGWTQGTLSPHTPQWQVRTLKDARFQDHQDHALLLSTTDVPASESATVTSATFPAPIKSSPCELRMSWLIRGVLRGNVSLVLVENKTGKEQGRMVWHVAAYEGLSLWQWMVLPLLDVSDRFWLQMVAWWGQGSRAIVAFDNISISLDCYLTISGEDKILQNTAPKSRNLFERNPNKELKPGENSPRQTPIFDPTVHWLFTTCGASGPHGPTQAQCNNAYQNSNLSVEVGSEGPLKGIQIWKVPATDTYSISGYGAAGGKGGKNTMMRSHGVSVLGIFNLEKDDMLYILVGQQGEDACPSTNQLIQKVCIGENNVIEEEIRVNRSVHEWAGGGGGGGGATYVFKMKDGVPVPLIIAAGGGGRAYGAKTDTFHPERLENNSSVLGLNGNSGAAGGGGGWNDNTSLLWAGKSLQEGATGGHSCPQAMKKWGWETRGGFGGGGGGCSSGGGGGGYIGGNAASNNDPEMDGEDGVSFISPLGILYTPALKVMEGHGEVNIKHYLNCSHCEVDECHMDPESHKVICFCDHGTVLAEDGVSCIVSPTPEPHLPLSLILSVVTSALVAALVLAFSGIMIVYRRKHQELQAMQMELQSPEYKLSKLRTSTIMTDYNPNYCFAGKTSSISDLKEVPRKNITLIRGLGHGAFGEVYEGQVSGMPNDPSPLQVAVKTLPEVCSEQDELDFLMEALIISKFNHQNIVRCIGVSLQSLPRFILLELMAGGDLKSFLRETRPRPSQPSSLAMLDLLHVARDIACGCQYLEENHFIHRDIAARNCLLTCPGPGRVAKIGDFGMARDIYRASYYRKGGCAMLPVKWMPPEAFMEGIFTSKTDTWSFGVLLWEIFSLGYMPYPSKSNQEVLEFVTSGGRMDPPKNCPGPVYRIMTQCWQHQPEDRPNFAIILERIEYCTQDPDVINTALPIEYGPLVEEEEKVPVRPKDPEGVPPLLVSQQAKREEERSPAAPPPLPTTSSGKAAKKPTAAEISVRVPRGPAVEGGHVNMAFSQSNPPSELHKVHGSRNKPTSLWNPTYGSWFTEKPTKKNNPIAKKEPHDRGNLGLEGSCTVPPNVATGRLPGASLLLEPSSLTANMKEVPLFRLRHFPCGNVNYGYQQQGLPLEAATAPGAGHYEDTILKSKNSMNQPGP

Question: Which inhibition at 10 µM (smMLCK) does the source give for O=C(Nc1cccnc1)c1cc(-c2ccnc(F)c2)ccc1OCc1ccccc1 [GSK2578215A, 2-(benzyloxy)-5-(2-fluoropyridin-4-yl)-N-(pyridin-3-yl)benzamide] here?
Answer: Its inhibition at 10 µM is greater than 50%.

Question: What about the ambit score (ALK) of the same molecule?
Answer: Its ambit score is less than 10.

Question: And the ambit score (FLT3(D835Y))?
Answer: The ambit score was less than 10.

Question: What about the clearance [1] of the same molecule?
Answer: Its clearance is 22.1 mL/min/kg.

Question: What about the “inhibition of LRRK2 Ser910 or Ser935 phosphorylation in brain” value (LRRK2; brain) of the same molecule?
Answer: The value was “no inhibition; also recorded: failed to induce significant inhibition”.

Question: And the “Ser910 and Ser935 dephosphorylation of LRRK2 in kidney” value (LRRK2; kidney)?
Answer: The value was “complete Ser910 and Ser935 dephosphorylation”.

Question: What about the “Ser910 and Ser935 dephosphorylation of LRRK2 in spleen” value (LRRK2; spleen) of the same molecule?
Answer: Its value is “complete Ser910 and Ser935 dephosphorylation”.

Question: And the IC50 [2]?
Answer: Its IC50 is roughly 10 nM.

Question: And the “concentration inducing dephosphorylation of Ser910 and 935” value (GFP-LRRK2[A2016T])?
Answer: Its value is 1 to 3 µM.
